# Target: T1, human PTHR1 receptor (Homo sapiens, UniProt Q03431)
# T1 construct: purchased Eurofins HTS030M
# T1 sequence (Q03431 27-593): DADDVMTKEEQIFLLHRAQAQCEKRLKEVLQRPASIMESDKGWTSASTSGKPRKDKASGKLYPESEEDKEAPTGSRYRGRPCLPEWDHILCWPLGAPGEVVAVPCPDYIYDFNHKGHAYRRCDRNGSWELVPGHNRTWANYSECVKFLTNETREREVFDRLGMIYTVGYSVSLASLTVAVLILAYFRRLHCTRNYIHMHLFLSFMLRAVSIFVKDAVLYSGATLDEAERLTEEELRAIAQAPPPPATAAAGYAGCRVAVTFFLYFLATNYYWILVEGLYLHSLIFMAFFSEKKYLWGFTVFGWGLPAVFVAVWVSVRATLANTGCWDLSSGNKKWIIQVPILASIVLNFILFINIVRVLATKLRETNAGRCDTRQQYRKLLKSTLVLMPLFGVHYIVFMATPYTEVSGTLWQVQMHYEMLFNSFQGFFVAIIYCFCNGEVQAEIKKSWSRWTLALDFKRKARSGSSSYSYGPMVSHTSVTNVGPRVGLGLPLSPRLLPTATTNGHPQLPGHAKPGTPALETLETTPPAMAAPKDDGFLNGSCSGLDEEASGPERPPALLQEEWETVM
# Experiment: Competitive antagonist binding assay for hPTH-R1 (radioactive competition binding, SPA beads)
# Details: human PTHR1 membranes, [125I]-[Nle8,18,Tyr34]-PTH(1-34) 0.2 nM, 90 minutes at room temperature; read-out: hPTHR1 Ki
# Method: Competitive Antagonist Binding Assay Protocol for hPTH-R1 Antagonists:
# The inhibition of binding to the human PTHR1 receptor was measured in a radioactive competition binding assay using the radiolabeled [^125I]-[NLE^8,18, TYR^34]-parathyroid hormone (1-34) ligand (PerkinElmer Cat# NEX244, custom synthesis) as the probe ligand for the receptor. Briefly, membranes from cells expressing the human PTHR1 (Eurofins Cat# HTS030M) were incubated with SPA beads (PerkinElmer Cat# RPNQ0001) in binding assay buffer [50 mM HEPES (Biopioneer Cat# C0113), 5 mM MgCl2 (Sigma Cat# M8266), 10 mM CaCl2 (Fisher Scientific Cat# BP510), 0.1% BSA (Fisher Scientific Cat# BP1600), 0.01% TritonX-100 (Bio-Rad Cat#161-0407), and protease inhibitors (Pierce Cat# A32963); pH 7.4]. Membranes bound to SPA bead were treated with various dilutions of compounds (final concentrations typically 0-10,000 nM), and 0.2 nM radiolabeled ligand in 96-well isoplates (PerkinElmer Cat#6005040) for 90 minutes at room temperature. The radioactive signal was detected using a MicroBetaTriLux 1450 LSC (PerkinElmer). All data manipulations to determine the Ki values were performed using GraphPad v8 (GraphPad, San Diego Calif.).
row,Ki,Compound
1,< 100 nM,"CCN1C(=O)N(c2c(F)cc(NCCN[C@H]3C[C@@H](O)C3)cc2F)c2cc(C#N)ccc2-c2cc(Cl)cnc21 [1-192, 4-chloro-10-{2,6-difluoro-4-[(2-{1[(1s,3s)-3-hydroxycyclobutyl]amino}ethyl)amino]phenyl}-8-ethyl-9-oxo-6,8,10-triazatricyclo[9.4.0.0^2,7]pentadeca-1(11),2(7),3,5,12,14-hexaene-13-carbonitrile]"
2,< 100 nM,"CCN1C(=O)N(c2c(F)cc(N[C@H](C)CNC)cc2F)c2cc(C#N)ccc2-c2cc(Cl)cnc21 [1-159, 4-chloro-10-(2,6-difluoro-4-{[(2R)-1-(methylamino)propan-2-yl]amino}phenyl)-8-ethyl-9-oxo-6,8,10-triazatricyclo[9.4.0.0^2,7]pentadeca-1(11),2(7),3,5,12,14-hexaene-13-carbonitrile]"
3,< 100 nM,"CN1C(=O)N(c2c(F)cc(NCCNCCO)cc2F)c2cc(C#N)cc(F)c2-c2cc(F)cnc21 [1-110, 10-[2,6-difluoro-4-({2-[(2-hydroxyethyl)amino]ethyl}amino)phenyl]-4,15-difluoro-8-methyl-9-oxo-6,8,10-triazatricyclo[9.4.0.0^2,7]pentadeca-1(11),2(7),3,5,12,14-hexaene-13-carbonitrile]"
4,< 100 nM,"CCN1C(=O)N(c2c(F)cc(NCCNCC(O)CO)cc2F)c2cc(C#N)ccc2-c2cc(Cl)cnc21 (stereo not drawn) [1-156, 4-chloro-10-[4-({2-[(2,3-dihydroxypropyl)amino]ethyl}amino)-2,6-difluorophenyl]-8-ethyl-9-oxo-6,8,10-triazatricyclo[9.4.0.0^2,7]pentadeca-1(11),2(7),3,5,12,14-hexaene-13-carbonitrile]"
5,< 100 nM,"CCN1C(=O)N(c2c(F)cc(NCCN[C@@H](CO)CC(=O)O)cc2F)c2cc(C#N)ccc2-c2cc(Cl)cnc21 [1-202, (3R)-3-({2-[(4-{4-chloro-13-cyano-8-ethyl-9-oxo-6,8,10-triazatricyclo[9.4.0.0^2,7]pentadeca-1(11),2(7),3,5,12,14-hexaen-10-yl}-3,5-difluorophenyl)amino]ethyl}amino)-4-hydroxybutanoic acid]"
6,< 100 nM,"CCN1C(=O)N(c2c(F)cc(NCCNCCO)cc2F)c2cc(Cl)cc(F)c2-c2cc(F)cnc21 [1-95, 13-chloro-10-[2,6-difluoro-4-({2-[(2-hydroxyethyl)amino]ethyl}amino)phenyl]-8-ethyl-4,15-difluoro-6,8,10-triazatricyclo[9.4.0.0^2,7]pentadeca-1(11),2(7),3,5,12,14-hexaen-9-one]"
7,< 100 nM,"CCN1C(=O)N(c2c(F)cc(NCCNCCO)cc2F)c2cc(Cl)ccc2-c2cccnc21 [1-7, 13-chloro-10-[2,6-difluoro-4-({2-[(2-hydroxyethyl)amino]ethyl}amino)phenyl]-8-ethyl-6,8,10-triazatricyclo[9.4.0.0^2,7]pentadeca-1(11),2(7),3,5,12,14-hexaen-9-one]"
8,< 100 nM,"CCN1C(=O)N(c2c(F)cc(NCCNCCN3CCOC3=O)cc2F)c2cc(C#N)ccc2-c2cc(Cl)cnc21 [1-191, 4-chloro-10-{2,6-difluoro-4-[(2-{[2-(2-oxo-1,3-oxazolidin-3-yl)ethyl]amino}ethyl)amino]phenyl}-8-ethyl-9-oxo-6,8,10-triazatricyclo[9.4.0.0^2,7]pentadeca-1(11),2(7),3,5,12,14-hexaene-13-carbonitrile]"
9,< 100 nM,"CC(C)N1C(=O)N(c2c(F)cc(NCCNCCO)cc2F)c2cc(Cl)cc(F)c2-c2cc(F)cnc21 [1-114, 13-chloro-10-[2,6-difluoro-4-({2-[(2-hydroxyethyl)amino]ethyl}amino)phenyl]-4,15-difluoro-8-(propan-2-yl)-6,8,10-triazatricyclo[9.4.0.0^2,7]pentadeca-1(11),2(7),3,5,12,14-hexaen-9-one]"
10,< 100 nM,"CCN1C(=O)N(c2c(F)cc(NCCNC3CCOC3)cc2F)c2cc(Cl)ccc2-c2cc(C)cnc21 (stereo not drawn) [1-28, 13-chloro-10-[2,6-difluoro-4-({2-[(oxolan-3-yl)amino]ethyl}amino)phenyl]-8-ethyl-4-methyl-6,8,10-triazatricyclo[9.4.0.0^2,7]pentadeca-1(11),2(7),3,5,12,14-hexaen-9-one]"
11,< 100 nM,"CCN1C(=O)N(c2c(F)cc(NCCNCCOCCC(=O)O)cc2F)c2cc(C#N)ccc2-c2cc(Cl)cnc21 [1-229, 3-[2-({2-[(4-{4-chloro-13-cyano-8-ethyl-9-oxo-6,8,10-triazatricyclo[9.4.0.0^2,7]pentadeca-1(11),2(7),3,5,12,14-hexaen-10-yl}-3,5-difluorophenyl)amino]ethyl}amino)ethoxy]propanoic acid]"
12,< 100 nM,"CCN1C(=O)N(c2c(F)cc(N3CC(CN)C3)cc2F)c2cc(C#N)ccc2-c2cc(F)cnc21 [1-123, 10-{4-[3-(aminomethyl)azetidin-1-yl]-2,6-difluorophenyl}-8-ethyl-4-fluoro-9-oxo-6,8,10-triazatricyclo[9.4.0.0^2,7]pentadeca-1(11),2(7),3,5,12,14-hexaene-13-carbonitrile]"
13,100 to 1000 nM,"CNCCNc1ccc(N2C(=O)N(C)c3ncccc3-c3ccc(Cl)cc32)c(F)c1 [2-2, 13-chloro-10-(2-fluoro-4-{[2-(methylamino)ethyl]amino}phenyl)-8-methyl-6,8,10-triazatricyclo[9.4.0.0^2,7]pentadeca-1(11),2(7),3,5,12,14-hexaen-9-one]"
14,< 100 nM,"CCN1C(=O)N(c2c(F)cc(NCCNCCCC(=O)O)cc2F)c2cc(C#N)ccc2-c2cc(F)cnc21 [1-83, 4-({2-[(4-{13-cyano-8-ethyl-4-fluoro-9-oxo-6,8,10-triazatricyclo[9.4.0.0^2,7]pentadeca-1(11),2(7),3,5,12,14-hexaen-10-yl}-3,5-difluorophenyl)amino]ethyl}amino)butanoic acid]"
15,< 100 nM,"CCN1C(=O)N(c2ccc(NCCNCCO)cc2F)c2cc(Cl)ccc2-c2cc(Cl)cnc21 [2-7, 4,13-dichloro-8-ethyl-10-[2-fluoro-4-({2-[(2-hydroxyethyl)amino]ethyl}amino)phenyl]-6,8,10-triazatricyclo[9.4.0.0^2,7]pentadeca-1(11),2(7),3,5,12,14-hexaen-9-one]"
16,< 100 nM,"CCN1C(=O)N(c2c(F)cc(NCCNCCCC(=O)O)cc2F)c2cc(C#N)cc(F)c2-c2cc(F)cnc21 [1-104, 4-({2-[(4-{13-cyano-8-ethyl-4,15-difluoro-9-oxo-6,8,10-triazatricyclo[9.4.0.0^2,7]pentadeca-1(11),2(7),3,5,12,14-hexaen-10-yl}-3,5-difluorophenyl)amino]ethyl}amino)butanoic acid]"
17,< 100 nM,"CCN1C(=O)N(c2c(F)cc(NCCNCCO)cc2F)c2cc(C#N)c(C)cc2-c2cc(F)cnc21 [3-20, 10-[2,6-difluoro-4-({2-[(2-hydroxyethyl)amino]ethyl}amino)phenyl]-8-ethyl-4-fluoro-14-methyl-9-oxo-6,8,10-triazatricyclo[9.4.0.0^2,7]pentadeca-1(11),2(7),3,5,12,14-hexaene-13-carbonitrile]"
18,< 100 nM,"CCN1C(=O)N(c2c(F)cc(NCCNC)cc2F)c2cc(F)ccc2-c2cc(Cl)cnc21 [1-130, 4-chloro-10-(2,6-difluoro-4-{[2-(methylamino)ethyl]amino}phenyl)-8-ethyl-13-fluoro-6,8,10-triazatricyclo[9.4.0.0^2,7]pentadeca-1(11),2(7),3,5,12,14-hexaen-9-one]"
19,< 100 nM,"CCN1C(=O)N(c2c(F)cc(NCCNC)cc2F)c2cc(C#N)cc(F)c2-c2cc(Cl)cnc21 [1-99, 4-chloro-10-(2,6-difluoro-4-{[2-(methylamino)ethyl]amino}phenyl)-8-ethyl-15-fluoro-9-oxo-6,8,10-triazatricyclo[9.4.0.0^2,7]pentadeca-1(11),2(7),3,5,12,14-hexaene-13-carbonitrile]"
20,< 100 nM,"CCCN1C(=O)N(c2c(F)cc(NCCNCCO)cc2F)c2cc(Cl)ccc2-c2cc(Cl)cnc21 [1-49, 4,13-dichloro-10-[2,6-difluoro-4-({2-[(2-hydroxyethyl)amino]ethyl}amino)phenyl]-8-propyl-6,8,10-triazatricyclo[9.4.0.0^2,7]pentadeca-1(11),2(7),3,5,12,14-hexaen-9-one]"
21,< 100 nM,"CCN1C(=O)N(c2c(F)cc(NCCNCCO)cc2F)c2cc(C)ccc2-c2cc(F)cnc21 [1-226, 10-[2,6-difluoro-4-({2-[(2-hydroxyethyl)amino]ethyl}amino)phenyl]-8-ethyl-4-fluoro-13-methyl-6,8,10-triazatricyclo[9.4.0.0^2,7]pentadeca-1(11),2(7),3,5,12,14-hexaen-9-one]"
